System: PC3 cells
Assay: NAMPT Cell Proliferation Assay
Format: cell-based
Details: Homo sapiens, PC-3, 120 h, 5 days incubation, cell viability by Cell Titer Glo
Outline: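 Cell Titer Glo viability after 5-day exposure (37° C, 5% CO2); PC3, 500 cells/well, RPMI + 10% heat-inactivated FBS, overnight attachment before dosing. Dose range 10 μM to 1×10^−5 μM, 10-fold steps. IC50 = sigmoidal fit of % inhibition.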

`CC(C)c1nc(C(=O)N2CCC(c3ccc(C(=O)NCc4ccn5ccnc5c4)cc3)CC2)cs1` [Example 1108, N-(imidazo[1,2-a]pyridin-7-ylmethyl)-4-(1-{[2-(propan-2-yl)-1,3-thiazol-4-yl]carbonyl}piperidin-4-yl)benzamide] and `CC(C)c1nc(C(=O)N2CCC(c3ccc(C(=O)NCc4ccn5ccnc5c4)cc3)CC2)co1` [Example 1113, N-(imidazo[1,2-a]pyridin-7-ylmethyl)-4-(1-{[2-(propan-2-yl)-1,3-oxazol-4-yl]carbonyl}piperidin-4-yl)benzamide] are within 1.5-fold of each other in IC50: 20.1 nM for the first, 23.1 nM for the second.

Going from `Cc1cc(C(=O)N2CCC(c3ccc(C(=O)NCc4ccn5ccnc5c4)cc3)CC2)nn1C(F)F` [Example 1109, 4-(1-{[1-(difluoromethyl)-5-methyl-1H-pyrazol-3-yl]carbonyl}piperidin-4-yl)-N-(imidazo[1,2-a]pyridin-7-ylmethyl)benzamide] to `O=C(NCc1ccn2ccnc2c1)c1ccc(C2CCN(C(=O)c3cc4ccccn4n3)CC2)cc1` [Example 1111, N-(imidazo[1,2-a]pyridin-7-ylmethyl)-4-[1-(pyrazolo[1,5-a]pyridin-2-ylcarbonyl)piperidin-4-yl]benzamide], the IC50 rises from 9.21 nM to 62 nM (6.7-fold). The first is the more potent here.

Compared with `N#Cc1csc(C(=O)N2CCC(c3ccc(C(=O)NCc4ccn5ccnc5c4)cc3)CC2)c1` [Example 1110, 4-{1-[(4-cyanothiophen-2-yl)carbonyl]piperidin-4-yl}-N-(imidazo[1,2-a]pyridin-7-ylmethyl)benzamide], `COc1csc(C(=O)N2CCC(c3ccc(NC(=O)NCc4ccn5ccnc5c4)cc3)CC2)c1` [Example 1130, 1-(imidazo[1,2-a]pyridin-7-ylmethyl)-3-(4-{1-[(4-methoxythiophen-2-yl)carbonyl]piperidin-4-yl}phenyl)urea] is 38-fold lower in IC50: 111 nM for the first, 2.96 nM for the second.

First: O=C(NCc1ccn2ccnc2c1)c1ccc(C2CCN(C(=O)c3ccc4occc4c3)CC2)cc1 [Example 1112, 4-[1-(1-benzofuran-5-ylcarbonyl)piperidin-4-yl]-N-(imidazo[1,2-a]pyridin-7-ylmethyl)benzamide]
Second: Cn1cc2ccc(C(=O)N3CCC(c4ccc(C(=O)NCc5ccn6ccnc6c5)cc4)CC3)cc2n1 [Example 1118, N-(imidazo[1,2-a]pyridin-7-ylmethyl)-4-{1-[(2-methyl-2H-indazol-6-yl)carbonyl]piperidin-4-yl}benzamide]
The IC50 of the first is 3.9-fold higher: 16.4 nM for the first, 4.18 nM for the second. The second is the more potent here.

`COc1ncc(C)cc1C(=O)N1CCC(c2ccc(C(=O)NCc3ccn4ccnc4c3)cc2)CC1` [Example 1114, N-(imidazo[1,2-a]pyridin-7-ylmethyl)-4-{1-[(2-methoxy-5-methylpyridin-3-yl)carbonyl]piperidin-4-yl}benzamide] and `COc1ccc(C(=O)N2CCC(c3ccc(C(=O)NCc4ccn5ccnc5c4)cc3)CC2)nc1OC` [Example 1115, 4-{1-[(5,6-dimethoxypyridin-2-yl)carbonyl]piperidin-4-yl}-N-(imidazo[1,2-a]pyridin-7-ylmethyl)benzamide] are within 1.5-fold of each other in IC50: 21.8 nM for the first, 21.2 nM for the second.

`Cn1cc2c(C(=O)N3CCC(c4ccc(C(=O)NCc5ccn6ccnc6c5)cc4)CC3)cccc2n1` [Example 1116, N-(imidazo[1,2-a]pyridin-7-ylmethyl)-4-{1-[(2-methyl-2H-indazol-4-yl)carbonyl]piperidin-4-yl}benzamide] and `Cn1ncc2c(C(=O)N3CCC(c4ccc(C(=O)NCc5ccn6ccnc6c5)cc4)CC3)cccc21` [Example 1119, N-(imidazo[1,2-a]pyridin-7-ylmethyl)-4-{1-[(1-methyl-1H-indazol-4-yl)carbonyl]piperidin-4-yl}benzamide] are within 1.5-fold of each other in IC50: 6.19 nM for the first, 6.67 nM for the second.

Compared with `CCC1CCCCN1C(=O)C(=O)N1CCC(c2ccc(C(=O)NCc3ccn4ccnc4c3)cc2)CC1` (stereo not drawn) [Example 1117, 4-{1-[(2-ethylpiperidin-1-yl)(oxo)acetyl]piperidin-4-yl}-N-(imidazo[1,2-a]pyridin-7-ylmethyl)benzamide], `O=C(NCc1ccn2ccnc2c1)c1ccc(C2CCN(C(=O)c3ccoc3C(F)(F)F)CC2)cc1` [Example 1120, N-(imidazo[1,2-a]pyridin-7-ylmethyl)-4-(1-{[2-(trifluoromethyl)furan-3-yl]carbonyl}piperidin-4-yl)benzamide] is 28-fold lower in IC50: 65.7 nM for the first, 2.37 nM for the second. The second is the more potent here.

`O=C(NCc1ccn2ccnc2c1)Nc1ccc(C2CCN(C(=O)c3cnc(C4CC4)s3)CC2)cc1` [Example 1121, 1-(4-{1-[(2-cyclopropyl-1,3-thiazol-5-yl)carbonyl]piperidin-4-yl}phenyl)-3-(imidazo[1,2-a]pyridin-7-ylmethyl)urea] and `O=C(NCc1ccn2ccnc2c1)Nc1ccc(C2CCN(C(=O)c3ccc(C4CC4)cn3)CC2)cc1` [Example 1132, 1-(4-{1-[(5-cyclopropylpyridin-2-yl)carbonyl]piperidin-4-yl}phenyl)-3-(imidazo[1,2-a]pyridin-7-ylmethyl)urea] are within 1.5-fold of each other in IC50: 8.42 nM for the first, 8.96 nM for the second.

`O=C(NCc1ccn2ccnc2c1)Nc1ccc(C2CCN(C(=O)c3ccc4scnc4c3)CC2)cc1` [Example 1122, 1-{4-[1-(1,3-benzothiazol-5-ylcarbonyl)piperidin-4-yl]phenyl}-3-(imidazo[1,2-a]pyridin-7-ylmethyl)urea] and `Cn1ncc2ccc(C(=O)N3CCC(c4ccc(NC(=O)NCc5ccn6ccnc6c5)cc4)CC3)cc21` [Example 1123, 1-(imidazo[1,2-a]pyridin-7-ylmethyl)-3-(4-{1-[(1-methyl-1H-indazol-6-yl)carbonyl]piperidin-4-yl}phenyl)urea] are within 1.5-fold of each other in IC50: 9.96 nM for the first, 7.11 nM for the second.

Compared with `Cc1nn(C)c(C(=O)N2CCC(c3ccc(NC(=O)NCc4ccn5ccnc5c4)cc3)CC2)c1Cl` [Example 1124, 1-(4-{1-[(4-chloro-1,3-dimethyl-1H-pyrazol-5-yl)carbonyl]piperidin-4-yl}phenyl)-3-(imidazo[1,2-a]pyridin-7-ylmethyl)urea], `O=C(NCc1ccn2ccnc2c1)Nc1ccc(C2CCN(C(=O)c3scnc3Cl)CC2)cc1` [Example 1138, 1-(4-{1-[(4-chloro-1,3-thiazol-5-yl)carbonyl]piperidin-4-yl}phenyl)-3-(imidazo[1,2-a]pyridin-7-ylmethyl)urea] is 11-fold higher in IC50: 0.344 nM for the first, 3.85 nM for the second.

Compared with `CCc1ccc(C(=O)N2CCC(c3ccc(NC(=O)NCc4ccn5ccnc5c4)cc3)CC2)nc1` [Example 1125, 1-(4-{1-[(5-ethylpyridin-2-yl)carbonyl]piperidin-4-yl}phenyl)-3-(imidazo[1,2-a]pyridin-7-ylmethyl)urea], `COc1cc(C(=O)N2CCC(c3ccc(NC(=O)NCc4ccn5ccnc5c4)cc3)CC2)ncc1C` [Example 1136, 1-(imidazo[1,2-a]pyridin-7-ylmethyl)-3-(4-{1-[(4-methoxy-5-methylpyridin-2-yl)carbonyl]piperidin-4-yl}phenyl)urea] is 1.6-fold lower in IC50: 4.77 nM for the first, 3.02 nM for the second.

Going from `N#Cc1cnc(C(=O)N2CCC(c3ccc(NC(=O)NCc4ccn5ccnc5c4)cc3)CC2)c(Cl)c1` [Example 1126, 1-(4-{1-[(3-chloro-5-cyanopyridin-2-yl)carbonyl]piperidin-4-yl}phenyl)-3-(imidazo[1,2-a]pyridin-7-ylmethyl)urea] to `N#Cc1cc(F)c(C(=O)N2CCC(c3ccc(NC(=O)NCc4ccn5ccnc5c4)cc3)CC2)c(F)c1` [Example 1133, 1-{4-[1-(4-cyano-2,6-difluorobenzoyl)piperidin-4-yl]phenyl}-3-(imidazo[1,2-a]pyridin-7-ylmethyl)urea], the IC50 falls from 2.36 nM to 1 nM (2.4-fold).

Compared with `CC1CC(C#N)(C(=O)N2CCC(c3ccc(NC(=O)NCc4ccn5ccnc5c4)cc3)CC2)C1` (stereo not drawn) [Example 1127, 1-(4-{1-[(1-cyano-3-methylcyclobutyl)carbonyl]piperidin-4-yl}phenyl)-3-(imidazo[1,2-a]pyridin-7-ylmethyl)urea], `N#Cc1ccc(C(=O)N2CCC(c3ccc(NC(=O)NCc4ccn5ccnc5c4)cc3)CC2)s1` [Example 1131, 1-(4-{1-[(5-cyanothiophen-2-yl)carbonyl]piperidin-4-yl}phenyl)-3-(imidazo[1,2-a]pyridin-7-ylmethyl)urea] is 12-fold higher in IC50: 2.99 nM for the first, 34.4 nM for the second.

`CCc1c(C(=O)N2CCC(c3ccc(NC(=O)NCc4ccn5ccnc5c4)cc3)CC2)nnn1CC` [Example 1128, 1-(4-{1-[(1,5-diethyl-1H-1,2,3-triazol-4-yl)carbonyl]piperidin-4-yl}phenyl)-3-(imidazo[1,2-a]pyridin-7-ylmethyl)urea] and `CCn1cc(C(=O)N2CCC(c3ccc(NC(=O)NCc4ccn5ccnc5c4)cc3)CC2)c(C(C)C)n1` [Example 1134, 1-[4-(1-{[1-ethyl-3-(propan-2-yl)-1H-pyrazol-4-yl]carbonyl}piperidin-4-yl)phenyl]-3-(imidazo[1,2-a]pyridin-7-ylmethyl)urea] are within 1.5-fold of each other in IC50: 6.05 nM for the first, 5.51 nM for the second.

First: O=C(NCc1ccn2ccnc2c1)Nc1ccc(C2CCN(C(=O)c3cc4occc4s3)CC2)cc1 [Example 1129, 1-(imidazo[1,2-a]pyridin-7-ylmethyl)-3-{4-[1-(thieno[3,2-b]furan-5-ylcarbonyl)piperidin-4-yl]phenyl}urea]
Second: O=C(NCc1ccn2ccnc2c1)Nc1ccc(C2CCN(C(=O)c3coc4ccccc34)CC2)cc1 [Example 1135, 1-{4-[1-(1-benzofuran-3-ylcarbonyl)piperidin-4-yl]phenyl}-3-(imidazo[1,2-a]pyridin-7-ylmethyl)urea]
The IC50 of the first is 1.9-fold higher: 8.05 nM for the first, 4.23 nM for the second.

Going from `O=C(NCc1ccn2ccnc2c1)Nc1ccc(C2CCN(C(=O)c3ccnn3C3CCCC3)CC2)cc1` [Example 1137, 1-(4-{1-[(1-cyclopentyl-1H-pyrazol-5-yl)carbonyl]piperidin-4-yl}phenyl)-3-(imidazo[1,2-a]pyridin-7-ylmethyl)urea] to `N#Cc1ccsc1C(=O)N1CCC(c2ccc(NC(=O)NCc3ccn4ccnc4c3)cc2)CC1` [Example 1139, 1-(4-{1-[(3-cyanothiophen-2-yl)carbonyl]piperidin-4-yl}phenyl)-3-(imidazo[1,2-a]pyridin-7-ylmethyl)urea], the IC50 rises from 0.277 nM to 1.41 nM (5.1-fold). The first is the more potent here.

In the case of `CC(C)c1ncncc1C(=O)N1CCC(c2ccc(NC(=O)NCc3ccn4ccnc4c3)cc2)CC1` [Example 1140, 1-(imidazo[1,2-a]pyridin-7-ylmethyl)-3-[4-(1-{[4-(propan-2-yl)pyrimidin-5-yl]carbonyl}piperidin-4-yl)phenyl]urea], the IC50 is reported as 5.84 nM.

— US9187472B2 (AbbVie Inc., priority 2012, dated 2015)
